Laboratory results taken from paper PMC4467461, “Small-molecule activation of SERCA2a SUMOylation for the treatment of heart failure” (Nature Communications, 2015).

Target: T1, Recombinant human SUMO-specific E1 (Homo sapiens, UniProt Q9UBT2)
T1 construct: purchased R&D Systems
Assay: SUMO E1 ATP hydrolysis, fluorogenic pyrophosphate assay
Assay type: biochemical
Details: E1 0.05 μM, Ubc9 0.25 μM, SUMO-1 12.5 μM, ATP 1 mM, 30 min at 37 °C; read-out: ATP-dependent activation of SUMO E1, EC50
Experimental: Figure 3 SUMO-specific activating enzyme, E1, is a direct target of N106. Mechanism of action of N106 on individual steps in the SUMOylation cascade in vitro. (a) Inorganic pyrophosphate resulting from ATP hydrolysis in E1-catalysed SUMO-1 activation in the presence of increasing concentration of N106 compound was assessed by fluorogenic pyrophosphate assay kit. Recombinant human SUMO-specific E1 (0.05 μM), human Ubc9 (0.25 μM), human SUMO-1 (12.5 μM) and ATP (1 mM) were incubated with increasing concentration of N106 for 30 min at 37 °C and quantified using a fluorescence microplate reader. (b) The SAE2-SUMO-1 conjugation was detected followed by western blotting with anti-SAE2 antibodies. […] (e) ATP hydrolytic activity of WT and mutant SUMO E1 are determined. (f) The E1-SUMO-1 conjugation was detected followed by western blot analysis with anti-SAE2 antibody. *The SAE2-SUMO-1 conjugated bands. […]
Biochemical activity of SUMO-specific E1 enzymes was examined by ATPase assay and in-vitro gel-shifting assays. ATP hydrolysis activity of E1 enzymes was measured by using pyrophosphate assay kit (Abcam Inc.). […] The E1-thioester formation was analysed in reaction mixtures containing 0.05 μM E1, 12.5 μM SUMO-1 and 1 mM ATP with N106 or DMSO. The E1-dependent E2-SUMO-1 thioester formation was assessed using reaction containing 0.05 μM E1, 0.25 μM E2, 12.5 μM SUMO-1 and 1 mM ATP with N106 or DMSO. […]

T1 sequence (Q9UBE0 whole entry): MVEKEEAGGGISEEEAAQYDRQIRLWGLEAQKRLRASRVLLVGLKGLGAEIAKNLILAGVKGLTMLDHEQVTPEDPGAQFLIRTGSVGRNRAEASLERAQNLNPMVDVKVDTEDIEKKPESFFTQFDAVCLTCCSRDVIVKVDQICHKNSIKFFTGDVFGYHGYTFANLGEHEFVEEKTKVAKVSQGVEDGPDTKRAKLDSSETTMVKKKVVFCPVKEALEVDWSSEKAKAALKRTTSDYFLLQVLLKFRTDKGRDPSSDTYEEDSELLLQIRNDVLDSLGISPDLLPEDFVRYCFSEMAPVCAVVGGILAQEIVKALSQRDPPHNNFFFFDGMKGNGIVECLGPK
T1 sequence (Q9UBT2 whole entry): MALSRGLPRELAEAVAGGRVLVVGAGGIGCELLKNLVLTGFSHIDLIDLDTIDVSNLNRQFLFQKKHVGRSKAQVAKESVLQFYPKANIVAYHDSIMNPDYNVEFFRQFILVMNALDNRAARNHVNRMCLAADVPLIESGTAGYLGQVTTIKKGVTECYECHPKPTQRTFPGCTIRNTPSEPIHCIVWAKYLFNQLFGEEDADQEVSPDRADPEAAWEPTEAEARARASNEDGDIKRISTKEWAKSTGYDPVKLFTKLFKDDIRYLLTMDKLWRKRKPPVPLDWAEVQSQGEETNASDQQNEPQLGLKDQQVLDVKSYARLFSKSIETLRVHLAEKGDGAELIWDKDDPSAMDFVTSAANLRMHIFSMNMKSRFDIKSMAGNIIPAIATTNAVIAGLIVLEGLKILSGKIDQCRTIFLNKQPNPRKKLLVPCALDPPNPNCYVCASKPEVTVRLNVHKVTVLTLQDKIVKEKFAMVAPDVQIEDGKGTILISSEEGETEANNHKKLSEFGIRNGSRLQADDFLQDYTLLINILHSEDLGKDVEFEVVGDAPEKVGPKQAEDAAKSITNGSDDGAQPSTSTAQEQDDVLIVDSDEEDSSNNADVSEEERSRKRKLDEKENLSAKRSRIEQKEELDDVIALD

## COc1ccc(-c2nnc(Nc3nc4c(OC)cccc4s3)o2)cc1 [Compound N106, N-(4-methoxybenzo[d]thiazol-2-yl)-5-(4-methoxyphenyl)-1,3,4-oxadiazol-2-amine]
  EC50: 2450 ± 130 nM
